Test results reported in ChEMBL document CHEMBL3352805, “Structure and Stereochemical Determination of Hypogeamicins from a Cave-Derived Actinomycete” (J Nat Prod, 2014).
≈ marks a conversion by molar mass, not a printed value. Calls of active or inactive are those of the source. No cut-off for these calls is given here.

Legend:
[1] = (§1) Cytotoxicity against human TCT1 cells after 48 hrs by calcein-AM dye based fluorescence assay; format: functional, cell-based; settings: TCT1, 48 h
Bacillus subtilis = test: Antibacterial activity against Bacillus subtilis; format: functional
TCT1 = test: as §1; format: functional, cell-based

`COC(=O)CC1CC2(SC34CC(CC(=O)OC)OC(C)C3(O)C(=O)c3c(O)cccc3C4=O)C(=O)c3cccc(O)c3C(=O)C2(O)C(C)O1` (stereo not drawn) gave an IC50 [1] of 6.4 µM.
Molecule `CC[C@H]1OC(=O)[C@H](C)[C@@H](O[C@H]2C[C@@](C)(OC)[C@@H](O)[C@H](C)O2)[C@H](C)[C@@H](O[C@@H]2O[C@H](C)C[C@H](N(C)C)[C@H]2O)[C@](C)(O)C[C@@H](C)C(=O)[C@H](C)[C@@H](O)[C@]1(C)O` [ERYTHROMYCIN] has an MIC (Bacillus subtilis) of 0.125 µg/mL (≈ 0.17 µM).
For `CCC[C@H]1O[C@H](C(O)C(N)=O)C[C@]23O[C@]12C(=O)c1c(O)cc(OC)cc1C3=O` (stereo partly drawn), the MIC (Bacillus subtilis) was 7 µg/mL (≈ 17.9 µM) and the Activity (TCT1) was “inactive”.
Molecule GENTAMICIN has an MIC (Bacillus subtilis) of 0.125 µg/mL.
For `CCC[C@H]1O[C@H](CC(N)=O)C[C@]2(O)C(=O)c3cc(OC)cc(O)c3C(=O)[C@@]12O`, the MIC (Bacillus subtilis) was 28 µg/mL (≈ 71.2 µM) and the Activity (TCT1) was “inactive”.
`COC(=O)CC1CC2(SC34CC(CCO)OC(C)C3(O)C(=O)c3c(O)cccc3C4=O)C(=O)c3cccc(O)c3C(=O)C2(O)C(C)O1` (stereo not drawn) gave an IC50 [1] of 6.4 µM.
Molecule `CC(=O)O[C@H]1C(=O)[C@@]2(C)[C@H]([C@H](OC(=O)c3ccccc3)[C@]3(O)C[C@H](OC(=O)[C@H](O)[C@@H](NC(=O)c4ccccc4)c4ccccc4)C(C)=C1C3(C)C)[C@]1(OC(C)=O)CO[C@@H]1C[C@@H]2O` [PACLITAXEL] has an IC50 [1] of 0.0025 µM.
With `CCC[C@H]1O[C@H](CC(N)=O)C[C@]2(S[C@]34C[C@@H](CC(N)=O)O[C@H](CCC)[C@]3(O)C(=O)c3c(O)cc(OC)cc3C4=O)C(=O)c3cc(OC)cc(O)c3C(=O)[C@@]12O` the MIC (Bacillus subtilis) was “inactive” and the Cytotoxicity (TCT1) was “Active”.
In the case of `CCC[C@H]1O[C@H](CC(N)=O)C[C@]23O[C@]12C(=O)c1c(O)cc(OC)cc1C3=O`, the MIC (Bacillus subtilis) is reported as 7 µg/mL (≈ 18.6 µM) and the Activity (TCT1) is reported as “inactive”.
